Laboratory results reported in paper PMC3274752 (Cancer discovery, 2011).

Key:
[1] = tested on: Ba/F3 cells expressing DDR2 L63V; type: cell-based; details: Ba/F3 DDR2 L63V grown in 50 nM nilotinib
[2] = tested on: Ba/F3 cells expressing DDR2 mutations; test: Four-day proliferation of IL-3-independent Ba/F3 cells expressing DDR2 mutants; type: cell-based; details: for killing / proliferation of DDR2-transformed Ba/F3 cells: IL-3-independent Ba/F3 cells expressing DDR2 mutations, single agent
[3] = tested on: DDR2-mutant HCC-366 cells; details: cited from earlier work
[4] = tested on: SCC lines harboring DDR2 mutations; test: Proliferation and viability of SCC lines harboring DDR2 mutations; type: cell-based; details: for inhibition of proliferation: SCC lines harboring DDR2 mutations
[5] = tested on: NCI-H1703 xenograft tumors; test: Xenograft of NCI-H1703 in athymic nude mice; type: in vivo; details: 50 mg/kg oral gavage, two weeks
[6] = tested on: NCI-H2286 xenograft tumors; test: Xenograft of NCI-H2286 in athymic nude mice; type: in vivo; details: 50 mg/kg oral gavage, two weeks
[7] = tested on: A549 cell line; test: Cell-Titer-Glo proliferation, six days, A549; type: cell-based; details: Homo sapiens, A549, read-out: calculated IC50, proliferation
[8] = tested on: Ba/F3 cells, vector control grown in the presence of IL-3; test: Four-day proliferation of control Ba/F3 cells grown in IL-3; type: cell-based; details: Mus musculus, BaF3, 96 h, read-out: mean calculated IC50 for the control
[9] = tested on: NIH-3T3 cells expressing DDR2 L63V; test: Soft agar colony formation, NIH-3T3 expressing DDR2 L63V; type: cell-based; details: single application at the time of plating
[10] = cited from earlier work
[11] = tested on: NCI-H1703 SCC cell line; details: NCI-H1703, PDGFRA amplification, positive control

## CN1CCN(CCOc2cc(OC3CCOCC3)c3c(Nc4c(Cl)ccc5c4OCO5)ncnc3c2)CC1 [AZD0530]
[1]
  proliferation on addition of AZD0530 to 50 nM nilotinib: marked reduction in proliferation
[2]
  killing / proliferation of DDR2-transformed Ba/F3 cells: modest effect on the proliferation

## C#Cc1cccc(Nc2ncnc3cc(OCCOC)c(OCCOC)cc23)c1 [erlotinib]
[3]; DDR2 mutant HCC-366 cell line
  GI50: 0.99 µM
[4]; HCC-366 and NCI-H2286, initial experiments, data not shown
  sensitivity relative to dasatinib: at least ten-fold less than dasatinib

## Cc1ccc(C(=O)Nc2ccc(CN3CCN(C)CC3)c(C(F)(F)F)c2)cc1C#Cc1cnc2cccnn12 [AP24534]
[4]
  inhibition of proliferation: inhibited the proliferation of SCC lines harboring DDR2 mutations
[2]
  killing / proliferation of DDR2-transformed Ba/F3 cells: effective in killing

## Cc1nc(Nc2ncc(C(=O)Nc3c(C)cccc3Cl)s2)cc(N2CCN(CCO)CC2)n1 [dasatinib]
[3]; HCC-366
  rank of sensitivity among 83 NSCLC cell lines: most sensitive squamous cell lung cancer line to dasatinib
[4]; 48 hours after addition of drug, data not shown
  cellular annexin V staining: increase in cellular annexin V staining
[4]; DDR2 mutant cell lines
  cell death versus cell cycle arrest by trypan blue exclusion: cell death as opposed to cell cycle arrest
[5]
  tumor size: decrease in tumor size
[6]
  tumor size: decrease in tumor size
[7]
  IC50: 7.4 µM
[8]
  IC50: 30 µM
[9]
  colony formation in soft agar: Colony formation could be inhibited
[10]
  toxicity in patients: myelosuppression and the development of pleural and pericardial effusions
[11]
  sensitivity in proliferation assay: sensitive to both drugs
[2]; Mus musculus, BaF3, 96 h, read-out: mean calculated IC50 for the mutants
  IC50: 0.68 µM

## Cc1cn(-c2cc(NC(=O)c3ccc(C)c(Nc4nccc(-c5cccnc5)n4)c3)cc(C(F)(F)F)c2)cn1 [nilotinib]
[4]
  inhibition of proliferation: inhibited the proliferation of SCC lines harboring DDR2 mutations
[2]; 50 nM, wild-type Ba/F3 cells or Ba/F3 cells expressing DDR2 mutations
  effect on proliferation at 50 nM: little effect on proliferation
[2]
  killing / proliferation of DDR2-transformed Ba/F3 cells: modest activity
